Experimental data reported in article PMC12650265 (The Journal of Experimental Medicine, 2025).

Key:
soluble WT MR1 = assay: fluorescence-based thermal shift (thermostability) assay of MR1–ligand complexes; assay type: binding, human; conditions: MR1 refolded with the ligand, SYPRO Orange, 28 to 95°C, three independent experiments
[1] = system: CD3^+ MR1-5-OP-RU tetramer^+ MAIT cells; assay: MAIT cell proliferation in CTV-labeled PBMCs; assay type: cell-based, human; conditions: 7-day culture, 5-OP-RU 10 µM, others 100 µM
MAIT cells from PBMCs = assay: primary MAIT cell activation in PBMCs (CD69, TNF); assay type: cell-based, human; conditions: 16-h incubation
hMR1 protein = biological target: T1, hMR1 protein (Homo sapiens, UniProt Q95460); assay: fluorescence polarization–based cell-free assay, competition with JYM20 for MR1 binding; conditions: 50% inhibition of 10 nM JYM20 binding to 100 nM empty hMR1, 37°C; three independent experiments in triplicate
T1 construct: plasmids encoding for the extracellular domains of MR1, β2m, and the AF-7 TCRα and TCRβ chains; made in house; host or cells: Escherichia coli BL21(DE3)

[2] = system: T2, human MR1–β2-microglobulin (β2m) complex; assay: refolding of recombinant MR1-β2m with ligand; assay type: binding; conditions: ligand added to refolding buffer; gel filtration and SDS-PAGE
T2 construct: plasmids encoding for the extracellular domains of MR1, β2m, and the AF-7 TCRα and TCRβ chains; made in house

[3] = system: T3, surface MR1*01 on C1R.MR1 cells; assay: quantification of cell surface MR1 by flow cytometry, C1R.MR1 cells; assay type: cell-based, human; conditions: C1R.MR1 cells, 3 h, 1–200 µM, 8F2F9 antibody
T3 construct: expressed in transfected cells; host or cells: C1R B lymphoblastoid cells transduced with MR1*01

[4] = system: T4, MR1 on PBMC-derived B lymphocytes; assay: MR1 surface expression on primary B cells; assay type: cell-based; conditions: primary human B cells, 16 h, highest doses, with or without 5-OP-RU
T4 construct: we also measured MR1 on the surface of cells expressing wild-type levels of MR1; endogenous in cells; host or cells: PBMC-derived B lymphocytes from healthy human donors

[5] = system: T5, folded MR1 in C1R.MR1 cells; assay: intracellular total folded MR1 by flow cytometry (8F2.F9); assay type: cell-based, human; conditions: 16 h, 100 µM
T5 construct: expressed in transfected cells; host or cells: C1R B lymphoblastoid cells transduced with MR1*01

[6] = system: T6, MR1^K43A on C1R.MR1^K43A cells; assay: cell surface MR1^K43A by flow cytometry; assay type: cell-based, human; conditions: 3 h
T6 construct: expressed in transfected cells; host or cells: C1R cells overexpressing MR1^K43A
Description: We then tested the effect of the RF catabolites on the expression of two mutant versions of MR1 termed MR1^R9H ([Howson et al., 2020]) and MR1^K43A ([Reantragoon et al., 2013]). First, we tested the MR1^R9H mutant ([Howson et al., 2020]), which represents a rare, natural human polymorph. […] We used C1R.MR1^R9H cells, which are produced by stable transduction of wild-type C1R cells, which express low levels of wild-type MR1, with a vector expressing the MR1^R9H mutant ([Howson et al., 2020]). […] When C1R. […] Next, we sought to understand how the previously characterized K43A mutation affects ligand binding.
The level of MR1 expressed on the cell surface was measured after the exposure to the investigated ligands as previously described ([Awad et al., 2020a]; [Wang et al., 2022a]). C1R Ag-presenting B lymphocytes overexpressing MR1*01 (C1R.MR1), MR1^K43A mutant (C1R.MR1^K43A), MR1^R9H mutant (C1R.MR1^R9H), or HLA-A*02:01 (C1R-A2), in addition to the monocytic THP-1-MR1 cells, were used in this study. 2 × 10^5 cells were incubated with RF catabolites for 3 or 16 h at 37°C and 5% CO2 in 200 μl folate-free RPMI 1640 medium from Gibco (Cat. No. 11875-093) fortified with 10% fetal bovine serum, sodium pyruvate (1 mmol/L), HEPES buffer (15 mmol/L), pH 7.2–7.5, 2% penicillin (100 U/ml), streptomycin ([…]), GlutaMAX (2 mmol/L), nonessential amino acids (0.1 mmol/L) (all from Thermo Fisher Scientific, Life Technologies), and 2-mercaptoethanol ([…], Sigma-Aldrich) (RF-10). After incubation, the cells were first stained with Zombie Aqua Fixable Viability Kit from BioLegend (Cat. No. 423102) and then incubated with biotinylated 8F2F9 αMR1 antibody for 30 min on ice. The unbound antibody was then washed off with 2% fetal bovine serum/PBS (called 2% FACS hereafter) buffer. The cells were finally incubated with PE-conjugated streptavidin (30 μg/ml; BioLegend) and then washed with 2% FACS buffer. The PE fluorescence intensity reflects the surface MR1 level. The data were acquired with LSRFortessa X-20 (BD Biosciences) and Diva software (BD Biosciences) and analyzed using FlowJo software (BD Biosciences).

[7] = system: SKW-3 cells expressing MAIT TCR AF-7; assay: SKW-3 reporter T cell activation (CD69), coculture with C1R.MR1; assay type: cell-based; conditions: for reactivity to 5-OP-RU (CD69): SKW-3-AF-7, in the presence of 1 nM 5-OP-RU; for reactivity to RL-7-Me (CD69): SKW-3-AF-7, in the presence of 100 nM RL-7-Me
Procedure: (§1) Given the intracellular MR1 retention induced by the RF catabolites, we anticipated that these ligands could influence the activity of MR1-reactive T cells. First, we utilized a system whereby reporter SKW-3 T cell lines were cocultured with C1R.MR1 APCs and activation was determined by CD69 expression. […] In contrast, SKW-3-MBV28 cells were inhibited by alloxazine but activated by lumichrome (Fig. S3, D–F). Two MR1-restricted TRAV1-2^−ve SKW-3 T cell lines were also tested.
(§2) C1R.MR1 cells (1 × 10^5) were initially stained with CTV (Thermo Fisher Scientific) for 15 min and then incubated with RF catabolites for 20 h. […] Cells were subsequently stained with PE-Cy7-conjugated anti-CD69 (1:100; BD Biosciences) and PE-labeled anti-MR1 (1:100, clone 26.5; BD Biosciences), before analysis on a LSRFortessa (BD Biosciences) flow cytometer. Activation of the SKW-3 cells was reflected by the cell surface CD69 expression.

[8] = system: SKW-3 cells expressing MAIT TCR MBV28; assay: as above; assay type: cell-based; conditions: SKW-3-MBV28, in the presence of 5-OP-RU
Procedure: as §1, §2

SKW-3-DGB129 line = assay: as above; assay type: cell-based; conditions: SKW-3-DGB129 cocultured with C1R.MR1
Procedure: as §1, §2

SKW-3-MAV36 line = assay: as above; assay type: cell-based; conditions: SKW-3-MAV36, in the presence of 5-OP-RU
Procedure: as §1, §2

[9] = system: T7, surface MR1*01 on THP-1.MR1 cells; assay: quantification of cell surface MR1 by flow cytometry, THP-1.MR1 cells; assay type: cell-based, human; conditions: 3 h
T7 construct: expressed in transfected cells; host or cells: THP-1 monocytic cells transduced with MR1
Procedure: Next, we investigated whether these RF catabolites can impact MR1 cell surface expression in both MR1-transduced B cell lymphoblastoid (C1R.MR1) and monocytic (THP-1.MR1) cell lines (Fig. 2). Here, the cells were incubated with 1–200 µM of RF or the RF catabolites, and the cell surface levels of MR1 were quantified by flow cytometry ([Awad et al., 2020a]; [Keller et al., 2017]). […] The MR1 downregulation seen in C1R.MR1 cells was specific to MR1 as the level of HLA-A*02:01 was not affected after incubating C1R-A2 with the ligands (Fig. S1 E). […] This MR1 downregulation varied between cell types, with a higher extent observed in THP-1.MR1 than C1R.MR1, and was seen after staining with two different conformational anti-MR1 antibodies (clones 8F2F9 and 26.5; Fig. 2 G). Beyond APCs overexpressing MR1, we also measured MR1 on the surface of cells expressing wild-type levels of MR1.
The level of MR1 expressed on the cell surface was measured after the exposure to the investigated ligands as previously described ([Awad et al., 2020a]; [Wang et al., 2022a]). […] The PE fluorescence intensity reflects the surface MR1 level. The data were acquired with LSRFortessa X-20 (BD Biosciences) and Diva software (BD Biosciences) and analyzed using FlowJo software (BD Biosciences).

T1 sequence (Q95460 23-302 limits assumed): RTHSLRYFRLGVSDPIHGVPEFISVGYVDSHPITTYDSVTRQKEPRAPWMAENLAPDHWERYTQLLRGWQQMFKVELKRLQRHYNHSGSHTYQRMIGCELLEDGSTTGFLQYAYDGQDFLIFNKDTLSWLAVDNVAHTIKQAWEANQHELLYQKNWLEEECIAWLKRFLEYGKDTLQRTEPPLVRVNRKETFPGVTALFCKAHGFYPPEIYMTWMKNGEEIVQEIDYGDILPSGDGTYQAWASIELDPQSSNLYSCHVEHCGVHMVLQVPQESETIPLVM
T1 sequence (P61769 21-119 partner): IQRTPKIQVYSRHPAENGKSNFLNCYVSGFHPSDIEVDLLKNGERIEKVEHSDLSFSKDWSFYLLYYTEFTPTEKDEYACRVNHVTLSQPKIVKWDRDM

| Structure (SMILES) | Tm50 (half-maximum melting temperature), Mean ± SD (soluble WT MR1) | MAIT cell proliferation [1] | CD69 upregulation on MAIT cells, ligand alone (MAIT cells from PBMCs) | IC50 (hMR1 protein) | Tm50 (half-maximum melting temperature), Mean ± SD (soluble WT MR1; listed as MR1-Alloxazine) | folding of the MR1-β2m cocomplex in solution [2] | MR1 cell surface expression [3] | MR1 surface expression [4] | total level of folded MR1 (intracellular staining with 8F2.F9) [5] | MR1^K43A at the cell surface [6] | reactivity to 5-OP-RU (CD69) [7] | reactivity to RL-7-Me (CD69) [7] | reactivity to 5-OP-RU (CD69) [8] | reactivity of MR1 autoreactive, nucleobase-adduct reactive line (CD69) (SKW-3-DGB129 line) | reactivity to 5-OP-RU (CD69) (SKW-3-MAV36 line) | Tm50 (half-maximum melting temperature), Mean ± SD (soluble WT MR1; listed as MR1-Lumiflavin) | MR1 cell surface expression [9] |
| --- | --- | --- | --- | --- | --- | --- | --- | --- | --- | --- | --- | --- | --- | --- | --- | --- | --- |
| CC(=O)C=Nc1c(NCC(O)C(O)C(O)CO)[nH]c(=O)[nH]c1=O [5-OP-RU, 5-(2-oxopropylideneamino)-6-D-ribitylaminouracil, reference compound] | 58.14 ± 0.60 °C | significantly proliferated | induced robust CD69 upregulation |  |  |  |  |  |  |  |  |  |  |  |  |  |  |
| O=c1nc2[nH]c3ccccc3nc-2c(=O)[nH]1 [Alloxazine, alloxazine] |  |  |  | 13.4 µM | 50.73 ± 0.45 °C | facilitated the correct folding of the MR1-β2m cocomplex | reduced MR1 cell surface | reduced MR1 surface expression | increased the total level of folded MR1 | increased MR1^K43A at the cell surface | not altered | inhibited in a dose-dependent manner | inhibited | inhibited | inhibited |  |  |
| Cc1cc2nc3c(=O)[nH]c(=O)nc-3n(C)c2cc1C [Lumiflavin, lumiflavin] |  |  |  | 22.8 µM |  | facilitated the correct folding of the MR1-β2m cocomplex |  | reduced MR1 surface expression |  | increased MR1^K43A at the cell surface | enhanced activation | activation was enhanced |  |  |  | 52.02 ± 0.58 °C | downregulated MR1 after 3 h |
